According to patent publication US10513523B2, “Imidazopyrazines and pyrazolopyrimidines and their use as AMPA receptor modulators” (Janssen Pharmaceutica NV, priority 2015, dated 2019):

Tests used:
[1] = biological target: GluA1o-γ8 (GRIA1o-CACNG8 fusion construct; TARP γ8 dependent AMPA receptor) (Homo sapiens (Human), UniProt P42261+Q8WXS5); experiment: Calcium flux assay (FLIPR), inhibition of glutamate response of GluA1o-γ8 channel; format: cell-based; settings: HEK293 cells stably expressing GRIA1o-CACNG8 fusion; 15 μM glutamate; pIC50 = negative log of IC50 in molar; read-out: GluR1-γ8 (pIC50) (converted)
Procedure, shortened: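 Potency is the midpoint of a four-parameter logistic fit to control-normalized FLIPR calcium responses elicited by 15 μM glutamate. Stable HEK293 cells carried a fused GluA1o-γ8 construct and were preincubated with compound and calcium dye in pH 7.4 HEPES buffer.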

[2] = system: endogenous γ8-containing AMPA receptor currents; experiment: Whole-cell electrophysiology on acutely-dissociated mouse hippocampal neurons; format: cell-based; settings: 10 mM glutamate, 500 ms, held at -60 mV
Description: The effects of selected compounds upon endogenous γ 8-containing AMPA receptor currents was evaluated using whole-cell electrophysiology on acutely-dissociated mouse hippocampal neurons. Hippocampus was chosen for this assay, since CACNG8 (the protein encoded by this gene is a type I transmembrane AMPA receptor regulatory protein i.e., TARP) is preferentially enriched in this brain region (Tomita et al. (2003). “Functional studies and distribution define a family of transmembrane AMPA receptor regulatory proteins.” J Cell Biol 161(4): 805-816.2003).
Hippocampi were dissected from C57black6 mice at 4-12 weeks postnatal, following the protocol described by Brewer (Brewer, G. J. (1997). “Isolation and culture of adult rat hippocampal neurons.” Journal of Neuroscience Methods 71(2): 143-155). The following is a brief summary of the procedure. Mice were asphyxiated with CO2 then decapitated. The brain was rapidly removed, then placed into ice-cold HABG medium. The recipe for HABG medium was: HibernateA supplemented with 2% B27 and 0.5 mM Glutamax (all reagents from Life Technologies). Hippocampi were micro-dissected from the brains, then washed with HABG without calcium (Hibernate A minus Calcium, BrainBits; 2% B27, Life Technologies; 0.5 mM glutamax, Life Technologies).
The hippocampi were then transferred to HABG without calcium, supplemented with 2 mg/mL papain (Worthington Biochemical). They were incubated at 30° C. on a roller for 40 min, then gently triturated with a fire-polished glass pipette. The supernatant containing dissociated neurons was collected, then centrifuged for 2 min at 200 g. The cell pellet was collected, and then resuspended in 8 mL of HABG. Live cells were counted, then plated onto 12 mm glass coverslips in HABG (2 mL) in 24-well plates at a density of 50-100 cells per coverslip. These cells were maintained at room temperature until use.
Whole-cell electrophysiology was performed using 1.5 mm diameter glass capillary tubes (World Precision Instruments TW150-4), pulled to a fine tip with a Sutter P-97 micropipette puller. The intracellular buffer was 90 mM KF, 30 mM KCl, 10 mM HEPES, and 5 mM EGTA, pH 7.4, 290mOs. The extracellular buffer was 135 mM NaCl, 4 mM KCl, 2 mM CaCl2, 1 mM MgCl2, 5 mM glucose, 10 mM HEPES, pH 7.4, 300 mOs. The open-tip resistances of the micropipettes using these solutions were 2-4 MΩ. Whole-cell recordings of neuron cell bodies were performed in voltage-clamp mode using an Axon Axopatch 200B amplifier. Whole-cell current was measured holding the interior of the cell at −60 mV, using a 5 kHz lowpass filter. The cells were continuously perfused through 7 mm square glass barrels using a solenoid-controlled solution switching device (Warner Instruments, PF-77B). The peak current in response to a 500 ms exposure to 10 mM glutamate every 5 seconds was measured, before and after exposure to test compound.
For analysis, the mean peak current of 5 traces in the presence of test compound was divided by the mean peak current of 5 traces prior to the addition of test compound. Compounds were tested at concentrations at least ten times higher than their estimated potency in the calcium flux assay, in order to ensure near-saturating occupancy of the receptor.

Chain of GluA1o-γ8 (GRIA1o-CACNG8 fusion construct; TARP γ8 dependent AMPA receptor) (P42261 other isoform, or with tags, fused parts or gaps): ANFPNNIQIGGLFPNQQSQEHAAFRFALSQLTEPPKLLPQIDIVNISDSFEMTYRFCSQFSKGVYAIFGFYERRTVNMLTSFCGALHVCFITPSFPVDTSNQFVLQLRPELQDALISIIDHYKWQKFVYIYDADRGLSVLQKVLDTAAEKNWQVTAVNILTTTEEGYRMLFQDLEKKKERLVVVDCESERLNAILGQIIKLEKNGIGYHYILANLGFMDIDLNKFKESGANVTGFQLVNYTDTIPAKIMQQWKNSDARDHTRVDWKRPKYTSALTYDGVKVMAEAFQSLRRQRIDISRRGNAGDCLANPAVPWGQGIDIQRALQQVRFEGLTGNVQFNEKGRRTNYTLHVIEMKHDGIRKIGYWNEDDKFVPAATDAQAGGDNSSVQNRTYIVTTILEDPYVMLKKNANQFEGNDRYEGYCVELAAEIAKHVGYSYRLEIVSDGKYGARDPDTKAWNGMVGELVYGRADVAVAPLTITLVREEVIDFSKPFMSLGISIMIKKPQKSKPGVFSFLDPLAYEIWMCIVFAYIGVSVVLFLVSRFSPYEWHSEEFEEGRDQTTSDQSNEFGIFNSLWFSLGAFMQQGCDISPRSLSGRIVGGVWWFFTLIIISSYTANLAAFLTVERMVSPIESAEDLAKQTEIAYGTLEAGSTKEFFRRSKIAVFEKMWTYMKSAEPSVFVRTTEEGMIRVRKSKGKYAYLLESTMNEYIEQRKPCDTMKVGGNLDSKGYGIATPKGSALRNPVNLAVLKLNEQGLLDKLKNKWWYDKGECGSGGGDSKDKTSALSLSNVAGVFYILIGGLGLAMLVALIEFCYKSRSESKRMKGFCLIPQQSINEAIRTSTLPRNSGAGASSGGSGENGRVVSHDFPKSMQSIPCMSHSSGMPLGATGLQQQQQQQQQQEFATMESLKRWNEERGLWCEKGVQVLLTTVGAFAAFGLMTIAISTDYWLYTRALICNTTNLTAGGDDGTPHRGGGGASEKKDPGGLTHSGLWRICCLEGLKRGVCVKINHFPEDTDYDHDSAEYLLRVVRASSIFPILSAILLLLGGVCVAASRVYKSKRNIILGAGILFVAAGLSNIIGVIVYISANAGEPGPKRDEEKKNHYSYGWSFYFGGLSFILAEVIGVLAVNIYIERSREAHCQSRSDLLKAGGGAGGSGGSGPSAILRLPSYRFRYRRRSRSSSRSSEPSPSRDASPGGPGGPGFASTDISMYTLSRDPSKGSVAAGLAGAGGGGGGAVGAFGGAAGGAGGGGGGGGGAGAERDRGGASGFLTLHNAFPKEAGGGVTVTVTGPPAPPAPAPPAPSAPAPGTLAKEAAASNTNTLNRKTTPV

## O=C1Cc2cc(-c3c(-c4ccc(F)cc4)nc4c(N5CCC(O)CC5)nccn34)ccc2N1 [Example 37, 5-[2-(4-Fluorophenyl)-8-(4-hydroxy-1-piperidyl)imidazo[1,2-a]pyrazin-3-yl]indolin-2-one]
[1]
  IC50: 0.316 nM
[2]; 0.1 μM test compound
  peak current (% control): 66%

## CC(=O)N1CCN(c2nccn3c(-c4ccc5c(c4)CC(=O)N5)c(-c4ccc(C#N)cc4)nc23)CC1 [Example 107, 4-[8-(4-Acetylpiperazin-1-yl)-3-(2-oxoindolin-5-yl)imidazo[1,2-a]pyrazin-2-yl]benzonitrile]
[1]
  IC50: 2.51 nM
[2]; 0.1 μM test compound
  peak current (% control): 67%

## Fc1ccc(-c2nc3c(N4CCOCC4)nccn3c2-c2ccc3[nH]ncc3c2)cc1 [Example 10, 4-[2-(4-Fluorophenyl)-3-(1H-indazol-5-yl)imidazo[1,2-a]pyrazin-8-yl]morpholine]
[1]
  IC50: 0.631 nM
[2]; 0.1 μM test compound
  peak current (% control): 64%
[2]; 1 μM test compound
  peak current (% control): 74%

## CC(=O)N1CCN(c2nccn3c(-c4ccc5c(c4)CC(=O)N5)c(Cc4ccccc4)nc23)CC1 [Example 17, 5-[8-(4-Acetylpiperazin-1-yl)-2-benzyl-imidazo[1,2-a]pyrazin-3-yl]indolin-2-one]
[1]
  IC50: 1.26 nM
[2]; 0.1 μM test compound
  peak current (% control): 68%

## CC(=O)N1CCN(c2nccn3c(-c4ccc(O)cc4)c(-c4ccc(F)cc4)nc23)CC1 [Example 1, 1-[4-[2-(4-Fluorophenyl)-3-(4-hydroxyphenyl)imidazo[1,2-a]pyrazin-8-yl]piperazin-1-yl]ethanone]
[1]
  IC50: 6.31 nM
[2]; 10 μM test compound
  peak current (% control): 81%

## Oc1ccc(-c2c(-c3ccc(F)cc3)nc3c(N4CCOCC4)nccn23)cc1 [Example 83, 4-[2-(4-Fluorophenyl)-8-morpholino-imidazo[1,2-a]pyrazin-3-yl]-phenol]
[1]
  IC50: 12.6 nM
[2]; 10 μM test compound
  peak current (% control): 78%

## Oc1ccc(-c2c(-c3ccc(F)cc3)nc3c(N4CC5(COC5)C4)nccn23)cc1 [Example 7, 4-[2-(4-Fluorophenyl)-8-(6-oxa-2-azaspiro[3.3]heptan-2-yl)imidazo[1,2-a]pyrazin-3-yl]phenol]
[1]
  IC50: 50.1 nM
[2]; 10 μM test compound
  peak current (% control): 55%
